Measurements taken from ChEMBL document CHEMBL1201862, “PubChem BioAssay data set” (2004).
Activity calls are given as the source filed them.

Legend:
[1] = biological target: Photoreceptor-specific nuclear receptor (Homo sapiens, UniProt Q9Y5X4); assay type: functional, cell-based;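 also: CHO-S cells with Gal4-NCOR and VP16-NR2E3 two-hybrid luciferase reporter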
[2] = biological target: T1, Neuropeptide Y receptor type 2 (Homo sapiens, UniProt P49146); experiment: Fluorescence-based cell-based high-throughput dose response assay for agonists of NPY-Y2. [Related pubchem assays: 1703 (Screening assay (CNGC inhibitors).), 1359 (Screening assay (NPY-Y2 potentiators or agonists).), 1304 (Screening assay (NPY-Y1 potentiators or agonists).), 1710 (Screening assay (NPY-Y2 agonists).), 1791 (Summary AID.)]; assay type: functional
T1 sequence (P49146 whole entry): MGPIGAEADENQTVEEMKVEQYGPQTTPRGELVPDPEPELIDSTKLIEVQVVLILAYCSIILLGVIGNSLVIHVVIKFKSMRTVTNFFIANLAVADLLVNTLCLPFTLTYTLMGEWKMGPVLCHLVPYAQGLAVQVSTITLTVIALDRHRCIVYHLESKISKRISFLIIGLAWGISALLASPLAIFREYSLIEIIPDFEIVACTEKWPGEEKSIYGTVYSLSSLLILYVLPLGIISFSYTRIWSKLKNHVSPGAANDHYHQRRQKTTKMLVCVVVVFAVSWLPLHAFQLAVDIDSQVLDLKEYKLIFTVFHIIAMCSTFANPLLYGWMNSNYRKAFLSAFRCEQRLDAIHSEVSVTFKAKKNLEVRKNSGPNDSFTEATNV

[3] = biological target: T2, Neuropeptide Y receptor type 1 (Homo sapiens, UniProt P25929); experiment: Fluorescence-based counterscreen for agonists of NPY-Y2: cell-based high-throughput dose response assay for agonists of NPY-Y1.; assay type: functional
T2 sequence (P25929 whole entry): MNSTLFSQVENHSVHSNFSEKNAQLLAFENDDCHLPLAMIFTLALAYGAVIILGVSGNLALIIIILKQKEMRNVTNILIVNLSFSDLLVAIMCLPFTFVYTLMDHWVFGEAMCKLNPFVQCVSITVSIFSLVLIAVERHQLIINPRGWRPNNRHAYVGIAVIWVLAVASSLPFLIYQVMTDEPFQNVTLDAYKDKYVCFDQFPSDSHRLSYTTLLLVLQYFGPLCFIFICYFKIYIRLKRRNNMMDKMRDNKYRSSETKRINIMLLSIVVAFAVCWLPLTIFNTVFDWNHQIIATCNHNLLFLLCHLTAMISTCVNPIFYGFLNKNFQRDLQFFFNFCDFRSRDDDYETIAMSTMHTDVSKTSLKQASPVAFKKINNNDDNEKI

Streptokinase A = biological target: T3, Streptokinase A (Streptococcus pyogenes serotype M1, UniProt P10520); experiment: S. pyogenes streptokinase expression inhibitors, potency, dose response, plasminogen activation absorbance, OD405 (AID 1914); assay type: functional, Streptococcus pyogenes M1 GAS;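 also: secreted streptokinase activity via plasminogen activation per viability signal from cell pellet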
T3 sequence (P10520 whole entry): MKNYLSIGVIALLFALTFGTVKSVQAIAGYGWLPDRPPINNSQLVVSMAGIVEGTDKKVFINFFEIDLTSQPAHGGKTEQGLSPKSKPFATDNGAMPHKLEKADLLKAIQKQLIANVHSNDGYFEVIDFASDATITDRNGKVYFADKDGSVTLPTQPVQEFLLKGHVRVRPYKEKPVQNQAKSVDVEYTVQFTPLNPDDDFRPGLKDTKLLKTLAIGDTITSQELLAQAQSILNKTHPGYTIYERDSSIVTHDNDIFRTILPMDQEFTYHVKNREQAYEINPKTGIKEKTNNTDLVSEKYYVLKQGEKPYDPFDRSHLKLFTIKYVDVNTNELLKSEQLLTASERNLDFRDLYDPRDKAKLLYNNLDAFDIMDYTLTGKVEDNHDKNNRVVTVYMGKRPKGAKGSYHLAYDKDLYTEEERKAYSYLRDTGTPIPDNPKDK

[4] = biological target: T4, Replicative DNA helicase DnaB (Mycobacterium tuberculosis, UniProt P9WMR3); experiment: DnaB intein splicing inhibitors, dose response, biochemical, cell-free fluorescence (AID 449749); assay type: functional
T4 sequence (P9WMR3 whole entry): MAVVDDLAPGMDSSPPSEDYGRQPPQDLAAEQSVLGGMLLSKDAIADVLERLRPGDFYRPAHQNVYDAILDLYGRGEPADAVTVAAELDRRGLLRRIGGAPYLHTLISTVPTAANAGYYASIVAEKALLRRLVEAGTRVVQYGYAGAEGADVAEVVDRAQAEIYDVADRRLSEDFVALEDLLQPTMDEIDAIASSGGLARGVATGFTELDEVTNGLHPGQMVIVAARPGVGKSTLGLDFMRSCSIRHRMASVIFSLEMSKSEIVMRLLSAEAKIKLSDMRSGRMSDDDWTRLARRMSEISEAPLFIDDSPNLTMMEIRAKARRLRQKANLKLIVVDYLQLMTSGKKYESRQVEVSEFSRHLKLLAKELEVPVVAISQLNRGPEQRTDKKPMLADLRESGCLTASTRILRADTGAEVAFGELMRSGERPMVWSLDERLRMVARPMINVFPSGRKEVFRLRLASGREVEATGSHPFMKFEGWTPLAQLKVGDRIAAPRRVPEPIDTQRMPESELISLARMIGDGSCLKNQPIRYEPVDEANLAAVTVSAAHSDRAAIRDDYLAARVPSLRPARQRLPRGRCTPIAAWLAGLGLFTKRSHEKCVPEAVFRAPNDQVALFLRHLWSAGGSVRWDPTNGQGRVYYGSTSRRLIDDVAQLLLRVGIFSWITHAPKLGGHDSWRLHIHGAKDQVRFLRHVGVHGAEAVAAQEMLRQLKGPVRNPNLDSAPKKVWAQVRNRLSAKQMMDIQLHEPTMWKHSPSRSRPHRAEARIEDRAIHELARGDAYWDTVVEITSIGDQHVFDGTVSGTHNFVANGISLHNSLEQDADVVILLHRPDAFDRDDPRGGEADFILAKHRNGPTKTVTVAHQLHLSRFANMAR

Protein RecA = biological target: T5, Protein RecA (Mycobacterium tuberculosis, UniProt P9WHJ3); experiment: Fluorescence Cell-Free Homogeneous Dose Retest to Identify Inhibitors of RecA-Intein Splicing Activity. [Related pubchem assays (depositor defined):AID2097, AID2223, AID489010, AID492950]; assay type: functional
T5 sequence (P9WHJ3 whole entry): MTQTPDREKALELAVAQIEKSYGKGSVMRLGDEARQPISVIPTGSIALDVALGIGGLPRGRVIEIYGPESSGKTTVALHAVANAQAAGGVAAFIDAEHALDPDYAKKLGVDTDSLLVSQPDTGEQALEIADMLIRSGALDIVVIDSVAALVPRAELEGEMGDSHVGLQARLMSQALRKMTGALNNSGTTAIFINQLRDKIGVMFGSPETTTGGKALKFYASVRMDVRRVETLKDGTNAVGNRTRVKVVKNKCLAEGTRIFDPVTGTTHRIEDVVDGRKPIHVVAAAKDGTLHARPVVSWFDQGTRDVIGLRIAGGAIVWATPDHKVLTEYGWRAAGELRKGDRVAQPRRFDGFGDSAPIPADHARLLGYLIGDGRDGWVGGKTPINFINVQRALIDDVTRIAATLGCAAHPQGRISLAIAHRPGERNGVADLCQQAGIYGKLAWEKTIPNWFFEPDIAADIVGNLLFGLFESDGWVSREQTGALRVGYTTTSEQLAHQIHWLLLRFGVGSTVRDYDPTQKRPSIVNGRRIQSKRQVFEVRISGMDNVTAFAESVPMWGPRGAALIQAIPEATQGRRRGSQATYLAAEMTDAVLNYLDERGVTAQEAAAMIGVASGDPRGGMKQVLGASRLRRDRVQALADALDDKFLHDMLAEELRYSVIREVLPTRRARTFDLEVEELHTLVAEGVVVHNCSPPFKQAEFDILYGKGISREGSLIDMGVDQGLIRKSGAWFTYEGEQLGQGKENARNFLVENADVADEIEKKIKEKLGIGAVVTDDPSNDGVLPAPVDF

[5] = biological target: T1, Neuropeptide Y receptor type 2; experiment: Fluorescence-based cell-based high-throughput dose response assay for potentiators or agonists of NPY-Y2. [Related pubchem assays: 1539 (Screening assay (NPY-Y2 potentiators or agonists).), 1703 (Screening assay (CNGC inhibitors).), 1359 (Screening assay (NPY-Y2 potentiators or agonists).), 1304 (Screening assay (NPY-Y1 potentiators or agonists).) …; assay type: functional
[6] = biological target: T2, Neuropeptide Y receptor type 1; experiment: Fluorescence-based counterscreen for potentiators or agonists of NPY-Y2: cell-based high-throughput dose response assay for potentiators or agonists of NPY-Y1.; assay type: functional
[7] = biological target: Potassium voltage-gated channel subfamily KQT member 2 (Rattus norvegicus, UniProt O88943, W236L); experiment: KCNQ2 channel potentiators, dose response, mechanism study for KCNQ2 potentiator project, cell-based, automated electrophysiology (AID 2603); assay type: functional
Sequence of Potassium voltage-gated channel subfamily KQT member 2 (O88943 whole entry W236L): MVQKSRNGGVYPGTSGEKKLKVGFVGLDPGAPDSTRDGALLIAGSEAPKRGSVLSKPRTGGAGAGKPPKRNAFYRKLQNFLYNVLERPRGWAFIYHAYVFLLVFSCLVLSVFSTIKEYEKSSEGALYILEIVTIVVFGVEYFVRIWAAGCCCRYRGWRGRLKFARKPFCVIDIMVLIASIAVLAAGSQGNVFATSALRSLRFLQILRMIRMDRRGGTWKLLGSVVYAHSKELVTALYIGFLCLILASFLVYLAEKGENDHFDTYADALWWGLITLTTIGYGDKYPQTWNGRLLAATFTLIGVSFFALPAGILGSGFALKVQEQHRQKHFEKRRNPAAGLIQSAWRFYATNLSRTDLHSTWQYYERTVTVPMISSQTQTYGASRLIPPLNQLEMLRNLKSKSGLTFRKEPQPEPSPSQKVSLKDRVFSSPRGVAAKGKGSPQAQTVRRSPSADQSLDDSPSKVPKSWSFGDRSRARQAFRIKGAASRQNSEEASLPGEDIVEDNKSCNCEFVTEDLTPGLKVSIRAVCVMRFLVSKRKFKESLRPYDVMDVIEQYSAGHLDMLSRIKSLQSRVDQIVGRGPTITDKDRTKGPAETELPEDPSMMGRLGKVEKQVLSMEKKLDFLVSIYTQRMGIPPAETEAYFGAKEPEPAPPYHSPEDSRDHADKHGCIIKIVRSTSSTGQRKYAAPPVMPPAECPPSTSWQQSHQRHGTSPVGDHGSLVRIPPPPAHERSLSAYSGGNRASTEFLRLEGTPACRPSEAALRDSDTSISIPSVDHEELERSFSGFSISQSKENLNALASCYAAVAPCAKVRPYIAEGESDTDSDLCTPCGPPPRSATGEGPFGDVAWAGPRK

Bcl-2-like protein 10 = Bcl-2-like protein 10 (Homo sapiens, UniProt Q9HD36); experiment: displacers of TR3 peptide from Bcl-B, primary screen, selectivity assay for Bfl-1 inhibitor project, biochemical, fluorescence polarization, FITC-TR3 peptide (AID 748);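 also: fluorescence polarization from a fluorescein-labelled TR3 peptide binding purified Bcl-B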
Sequence of Bcl-2-like protein 10 (Q9HD36 whole entry): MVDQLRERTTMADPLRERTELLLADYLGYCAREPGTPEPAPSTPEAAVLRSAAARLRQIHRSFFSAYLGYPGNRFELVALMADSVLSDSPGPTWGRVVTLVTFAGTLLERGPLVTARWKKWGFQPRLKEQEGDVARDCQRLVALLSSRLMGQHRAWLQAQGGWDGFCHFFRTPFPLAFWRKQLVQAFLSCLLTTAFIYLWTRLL

Estrogen receptor beta = Estrogen receptor beta (Homo sapiens, UniProt Q92731); experiment: ERβ–SRC-3 coactivator interaction inhibitors, confirmation, orthogonal assay, biochemical, ELISA, streptavidin-HRP readout (AID 1060)
Sequence of Estrogen receptor beta (Q92731 whole entry): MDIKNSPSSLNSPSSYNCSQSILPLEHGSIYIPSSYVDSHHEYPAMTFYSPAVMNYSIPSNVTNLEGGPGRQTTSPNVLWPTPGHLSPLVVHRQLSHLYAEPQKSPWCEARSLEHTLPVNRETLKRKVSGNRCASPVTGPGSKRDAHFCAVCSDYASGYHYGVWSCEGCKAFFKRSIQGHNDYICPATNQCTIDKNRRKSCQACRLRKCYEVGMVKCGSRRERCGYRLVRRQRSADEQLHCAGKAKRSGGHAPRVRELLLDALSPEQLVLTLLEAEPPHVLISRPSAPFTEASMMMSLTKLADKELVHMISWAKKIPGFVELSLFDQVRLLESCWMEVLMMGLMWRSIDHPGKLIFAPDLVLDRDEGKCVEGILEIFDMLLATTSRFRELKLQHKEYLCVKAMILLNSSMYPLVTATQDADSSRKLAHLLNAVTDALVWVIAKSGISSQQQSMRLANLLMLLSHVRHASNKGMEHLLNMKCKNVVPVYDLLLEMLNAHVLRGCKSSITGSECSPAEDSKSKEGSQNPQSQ

Sequence of Photoreceptor-specific nuclear receptor (Q9Y5X4 whole entry, the tested form may be a part): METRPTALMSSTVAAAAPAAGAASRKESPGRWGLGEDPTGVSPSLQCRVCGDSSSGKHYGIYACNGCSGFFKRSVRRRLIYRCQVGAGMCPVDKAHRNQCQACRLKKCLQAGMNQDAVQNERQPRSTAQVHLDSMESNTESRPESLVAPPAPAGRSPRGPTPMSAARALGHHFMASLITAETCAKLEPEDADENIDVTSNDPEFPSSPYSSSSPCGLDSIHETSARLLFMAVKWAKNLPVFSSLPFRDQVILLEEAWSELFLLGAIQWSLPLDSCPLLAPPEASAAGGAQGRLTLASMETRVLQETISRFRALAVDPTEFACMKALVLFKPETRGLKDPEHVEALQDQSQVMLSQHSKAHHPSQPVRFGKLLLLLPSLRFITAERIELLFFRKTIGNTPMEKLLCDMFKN

**Q.** For `O=[N+]([O-])c1cc(C(F)(F)F)cc([N+](=O)[O-])c1NCCNC(=S)Nc1ccc(Cl)c(Cl)c1`, which IC50 [1] is on record?
**A.** 7.03 µM (active)

**Q.** What about the EC50 [2] of the same compound?
**A.** 8.24 µM (active)

**Q.** And the EC50 [3]?
**A.** 6 µM (active)

**Q.** And the EC50 (Streptokinase A)?
**A.** 7.06 µM (inconclusive)

**Q.** What about the AC50 [4] of the same compound?
**A.** 4.92 µM (active)

**Q.** And the EC50 (Protein RecA)?
**A.** 303 µM (active)

**Q.** What about the EC50 [5] of the same compound?
**A.** 8.69 µM (active)

**Q.** And the EC50 [6]?
**A.** 11.2 µM (not active)

**Q.** With `CC1=C(C(=O)OC2CCCCCCC2)C(c2cccc(O)c2)NC(=O)N1` (stereo unspecified) as the compound, how does the EC50 [7] read?
**A.** 537 µM (active)

**Q.** `O=C(c1cnccn1)N1CCc2ccccc21` was tested. Which IC50 (Bcl-2-like protein 10) did it give?
**A.** 23.7 µM (active)

**Q.** What about the IC50 (Estrogen receptor beta) of the same compound?
**A.** < 0.023 µM (not active)
